# Laboratory results: US20220289679A1, “HETEROCYCLIC COMPOUND” (Takeda Pharmaceutical Company Limited, priority 2019, published 2022)
# Molecular target: T1, human GCS (glucosylceramide synthase) (Homo sapiens, UniProt Q16739)
# T1 construct: made in house; host or cells: Expi293F cells (transient expression; microsome fraction)
# T1 sequence (Q16739 1-394): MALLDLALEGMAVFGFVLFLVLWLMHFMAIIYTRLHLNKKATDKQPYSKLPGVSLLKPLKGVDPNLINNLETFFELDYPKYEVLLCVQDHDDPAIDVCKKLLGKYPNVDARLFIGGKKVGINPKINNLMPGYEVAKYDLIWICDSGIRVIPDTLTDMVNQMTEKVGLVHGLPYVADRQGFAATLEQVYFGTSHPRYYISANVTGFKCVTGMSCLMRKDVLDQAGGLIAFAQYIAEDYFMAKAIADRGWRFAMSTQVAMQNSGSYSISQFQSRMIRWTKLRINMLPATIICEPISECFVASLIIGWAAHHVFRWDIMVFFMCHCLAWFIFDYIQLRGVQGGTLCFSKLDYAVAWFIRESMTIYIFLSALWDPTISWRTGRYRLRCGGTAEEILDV
# Assay: Glucosylceramide Synthase (GCS) Assay
# Format: biochemical
# Conditions: test compound 10 μM; microsome fraction of Expi293F cells expressing human GCS; 1.7 μM UDP-glucose, 3 μM C8 ceramide; room temperature 60 min; C8 glucosylceramide by Rapidfire MS/MS
# Description: In enzyme assay, a microsome fraction obtained by transient expression by Expi293F™ cells (catalog number: A14527, Thermo Fisher Scientific) was used as a glucosylceramide synthase source. Liposomal C8 ceramide and UDP-glucose were used as substrates. For each substrate concentration, 1.7 μM UDP-glucose, which is equal to the Km value, and 3 μM C8 ceramide were used. After the enzymatic reaction, the analysis was performed with Rapidfire MS/MS (API-4000™, SCIEX), and C8 glucosylceramide was quantified to evaluate the inhibitory activity of the test compound against glucosylceramide synthase activity.
# PcDNA3.3TOPO vector (catalog number: K830001, Thermo Fisher Scientific) into which the human GCS gene was inserted was introduced into Expi293F™ Cells (catalog number: A14527, Thermo Fisher Scientific) by using ExpiFectamine™ 293 Transfection Kit (catalog number: A14525, Thermo Fisher Scientific). The cultured cells were dissolved in D-PBS (catalog number: 048-29805, Fuji Film Wako Pure Chemical Industries, Ltd.) containing 1 mM PMSF, and the solution was allowed to stand on ice for 30 minutes, and then subjected to cell disruption (homogenized). The disruption solution was centrifuged at 10,000×g for 20 minutes at 4° C., and the obtained supernatant was centrifuged at 142,400×g for 60 minutes at 4° C. The obtained precipitate was resuspended in a D-PBS solution containing 1 mM PMSF, and homogenized again to prepare as a microsome fraction. Protein quantification was performed by the CBB method.
# A 1 mM compound solution prepared by dissolving the test compound in DMSO was added to a 384-well plate by 100 nL so that the final concentration of the test compound was 10 μM. Next, a substrate solution consisting of 3.4 μM UDP-glucose and 6 μM C8 ceramide was added by 5 μL, followed by an enzyme solution consisting of a 25 μg/mL microsome fraction by 5 μL. C8 ceramide was prepared from liposomes composed of 15 mol % C8 ceramide and 85 mol % dioleoyl phosphatidylcholine (1,2-dioleoyl-sn-glycero-3-phosphocholine: DOPC). The enzymatic reaction was carried out in a solution consisting of 20 mM tris-hydrochloric acid buffer (pH 7.5), 0.01% Tween 20, 0.01% bovine serum albumin and 1 mM dithiothreitol at room temperature for 60 min. Then, a solution consisting of 75% isopropanol and 1% formic acid containing 0.25 μM N-Octadecanoyl-D35-psichosine (catalog number: 1914, Matreya) as an internal standard substance was added by 60 μL to stop the enzymatic reaction. 5 μL of the centrifugal supernatant of the obtained reaction product was analyzed by Rapidfire MS/MS (Agilent Technologies) using API-4000™ (SCIEX), and the C8 glucosylceramide was quantified to evaluate the inhibitory activity of the test compound against the glucosylceramide synthase activity. The inhibitory activity of the test compound was evaluated when the C8 glucosylceramide level in the enzyme-free solution was considered as 100% inhibitory and the enzyme activity of the DMSO group in the absence of the compound was considered as 0% inhibitory.
row,GCS enzyme inhibitory rate at 10 μM (%),Structure (SMILES)
1,97,"O=C(Nc1ccc(C(O)C2CC2)nc1)c1cccn(-c2ccc(F)cc2OCC(F)(F)F)c1=O (single isomer, unassigned) [Example 116, (R or S)-N-{6-[cyclopropyl(hydroxy)methyl]pyridin-3-yl}-1-[4-fluoro-2-(2,2,2-trifluoroethoxy)phenyl]-2-oxo-1,2-dihydropyridine-3-carboxamide]"

# Same assay, conditions: test compound 10 μM; microsome fraction of Expi293F cells expressing human GCS; 1.7 μM UDP-glucose, 3 μM C8 ceramide; room temperature 60 min; C8 glucosylceramide by Rapidfire MS/MS; read-out: GCS enzyme inhibitory rate at 10 μM (%)
row,inhibition at 10 µM [%],Structure (SMILES)
1,100,"O=C(Nc1ccc(C(O)(C(F)F)C(F)F)cc1)c1cccn(-c2ccccc2OCC(F)(F)F)c1=O [Example 77, 2-oxo-N-[4-(1,1,3,3-tetrafluoro-2-hydroxypropan-2-yl)phenyl]-1-[2-(2,2,2-trifluoroethoxy)phenyl]-1,2-dihydropyridine-3-carboxamide]"
2,100,"Cn1cc(C(=O)Nc2ccc(C(C)(C)O)cc2)c(=O)c(-c2ccccc2OCC(F)F)n1 [Example 158, 6-[2-(2,2-difluoroethoxy)phenyl]-N-[4-(2-hydroxypropan-2-yl)phenyl]-2-methyl-5-oxo-2,5-dihydropyridazine-4-carboxamide]"
3,100,"Cc1cc(C(=O)Nc2ccc(C(O)(C(F)F)C(F)F)cc2)c(=O)n(-c2ccccc2OCC(F)F)n1 [Example 152, 2-[2-(2,2-difluoroethoxy)phenyl]-6-methyl-3-oxo-N-[4-(1,1,3,3-tetrafluoro-2-hydroxypropan-2-yl)phenyl]-2,3-dihydropyridazine-4-carboxamide]"
4,97,"CCOC(=O)c1ccc(NC(=O)c2cc(C)nn(-c3ccccc3OCC(F)F)c2=O)cc1 [Example 194, ethyl 4-({2-[2-(2,2-difluoroethoxy)phenyl]-6-methyl-3-oxo-2,3-dihydropyridazine-4-carbonyl}amino)benzoate]"
5,100,"O=C(Nc1ccc(C(O)(C(F)F)C(F)F)cc1)c1ccnn(-c2ccccc2OCC(F)(F)F)c1=O [Example 155, 3-oxo-N-[4-(1,1,3,3-tetrafluoro-2-hydroxypropan-2-yl)phenyl]-2-[2-(2,2,2-trifluoroethoxy)phenyl]-2,3-dihydropyridazine-4-carboxamide]"
6,79,"Cn1cc(C(=O)Nc2ccc(C(F)F)cc2)c(=O)c(-c2ccccc2OCC(F)F)n1 [Example 185, 6-[2-(2,2-difluoroethoxy)phenyl]-N-[4-(difluoromethyl)phenyl]-2-methyl-5-oxo-2,5-dihydropyridazine-4-carboxamide]"
7,100,"O=C(Nc1ccc(C(O)(C(F)F)C(F)F)cc1)c1cn(C(F)F)nc(-c2ccccc2OCC(F)F)c1=O [Example 163, 6-[2-(2,2-difluoroethoxy)phenyl]-2-(difluoromethyl)-5-oxo-N-[4-(1,1,3,3-tetrafluoro-2-hydroxypropan-2-yl)phenyl]-2,5-dihydropyridazine-4-carboxamide]"
8,100,"Cn1cc(C(=O)Nc2ccc(C(O)(C(F)F)C(F)F)nc2)c(=O)c(-c2ccccc2OCC(F)F)n1 [Example 176, 6-[2-(2,2-difluoroethoxy)phenyl]-2-methyl-5-oxo-N-[6-(1,1,3,3-tetrafluoro-2-hydroxypropan-2-yl)pyridin-3-yl]-2,5-dihydropyridazine-4-carboxamide]"

# Second part, the molecule before the results:
row,Structure (SMILES),inhibition at 10 µM [%]
1,"CC(C)(O)c1ccc(NC(=O)c2cccn(-c3ccc(F)cc3OCC(F)(F)F)c2=O)cc1F [Example 83, N-[3-fluoro-4-(2-hydroxypropan-2-yl)phenyl]-1-[4-fluoro-2-(2,2,2-trifluoroethoxy)phenyl]-2-oxo-1,2-dihydropyridine-3-carboxamide]",98
2,"COc1cc(F)ccc1-n1cccc(C(=O)Nc2ccc(OCC(F)(F)F)nc2)c1=O [Example 5, 1-(4-fluoro-2-methoxyphenyl)-2-oxo-N-[6-(2,2,2-trifluoroethoxy)pyridin-3-yl]-1,2-dihydropyridine-3-carboxamide]",68
3,"COC(C)(C)c1ccc(NC(=O)c2cccn(-c3ccc(F)cc3OCC(F)(F)F)c2=O)cn1 [Example 91, 1-[4-fluoro-2-(2,2,2-trifluoroethoxy)phenyl]-N-[6-(2-methoxypropan-2-yl)pyridin-3-yl]-2-oxo-1,2-dihydropyridine-3-carboxamide]",89
4,"N#Cc1cc(F)ccc1-n1cccc(C(=O)Nc2ccc(OCC(F)(F)F)nc2)c1=O [Example 52, 1-(2-cyano-4-fluorophenyl)-2-oxo-N-[6-(2,2,2-trifluoroethoxy)pyridin-3-yl]-1,2-dihydropyridine-3-carboxamide]",85
5,"N#Cc1cc(F)ccc1-n1cccc(C(=O)Nc2ccc(Oc3ccccc3)cc2)c1=O [Example 30, 1-(2-cyano-4-fluorophenyl)-2-oxo-N-(4-phenoxyphenyl)-1,2-dihydropyridine-3-carboxamide]",55
6,"CC(C)(O)COc1ccc(NC(=O)c2cccn(-c3ccccc3OCC(F)(F)F)c2=O)cc1 [Example 70, N-[4-(2-hydroxy-2-methylpropoxy)phenyl]-2-oxo-1-[2-(2,2,2-trifluoroethoxy)phenyl]-1,2-dihydropyridine-3-carboxamide]",97
7,"O=C(Nc1ccc(OCC(F)(F)F)nc1)c1cccn(-c2ccc(F)cc2OCC(F)F)c1=O [Example 101, 1-[2-(2,2-difluoroethoxy)-4-fluorophenyl]-2-oxo-N-[6-(2,2,2-trifluoroethoxy)pyridin-3-yl]-1,2-dihydropyridine-3-carboxamide]",99
8,"O=C(Nc1ccc(C2CCCO2)cc1)c1ccnn(-c2ccccc2OCC(F)F)c1=O (racemic) [Example 144, rac-2-[2-(2,2-difluoroethoxy)phenyl]-3-oxo-N-[4-(oxolan-2-yl)phenyl]-2,3-dihydropyridazine-4-carboxamide]",100
9,"CC(C)(O)COc1ccc(NC(=O)c2cccn(-c3ccc(F)cc3OCC(F)(F)F)c2=O)cc1 [Example 60, 1-[4-fluoro-2-(2,2,2-trifluoroethoxy)phenyl]-N-[4-(2-hydroxy-2-methylpropoxy)phenyl]-2-oxo-1,2-dihydropyridine-3-carboxamide]",92
10,"O=C(Nc1ccc(OCCC(F)(F)F)nc1)c1cccn(-c2ccc(F)cc2OCC(F)(F)F)c1=O [Example 64, 1-[4-fluoro-2-(2,2,2-trifluoroethoxy)phenyl]-2-oxo-N-[6-(3,3,3-trifluoropropoxy)pyridin-3-yl]-1,2-dihydropyridine-3-carboxamide]",99
11,"COC(C)(C)c1ccc(NC(=O)c2cccn(-c3ccccc3OCC(F)(F)F)c2=O)cn1 [Example 92, N-[6-(2-methoxypropan-2-yl)pyridin-3-yl]-2-oxo-1-[2-(2,2,2-trifluoroethoxy)phenyl]-1,2-dihydropyridine-3-carboxamide]",95
12,"O=C(Nc1ccc(C(=O)N2CCCCC2)cc1)c1cccn(-c2ccc(F)cc2OCC(F)(F)F)c1=O [Example 43, 1-[4-fluoro-2-(2,2,2-trifluoroethoxy)phenyl]-2-oxo-N-[4-(piperidine-1-carbonyl)phenyl]-1,2-dihydropyridine-3-carboxamide]",95
13,"CC(C)(O)c1cc(C(=O)Nc2ccc(C(C)(C)C#N)cc2)c(=O)n(-c2ccccc2OCC(F)(F)F)n1 [Example 201, N-[4-(2-cyanopropan-2-yl)phenyl]-6-(2-hydroxypropan-2-yl)-3-oxo-2-[2-(2,2,2-trifluoroethoxy)phenyl]-2,3-dihydropyridazine-4-carboxamide]",100
